# Data published in article PMC9127493 (Signal Transduction and Targeted Therapy, 2022).
# How the values were obtained:
# [1] = system: SARS-CoV-2 variant Omicron; experiment: microbe, parasite or virus in culture; assay type: cell-based; conditions: Severe acute respiratory syndrome coronavirus 2; n = 6
# SARS-CoV-2 variant Delta = experiment: microbe, parasite or virus in culture; assay type: cell-based; conditions: Severe acute respiratory syndrome coronavirus 2; n = 6
# Omicron variant = experiment: Cytopathic effect (CPE) inhibition assay in Vero E6 cells; assay type: cell-based, SARS-CoV-2
# SARS-CoV-2 variant Alpha = experiment: microbe, parasite or virus in culture; assay type: cell-based; conditions: Severe acute respiratory syndrome coronavirus 2; n = 6
# SARS-CoV-2 variant Beta = experiment: microbe, parasite or virus in culture; assay type: cell-based; conditions: Severe acute respiratory syndrome coronavirus 2; n = 6
# [2] = system: four SARS-CoV-2 variants of concern (VOCs), including Alpha, Beta, Delta and Omicron; assay type: cell-based; conditions: at 200 nM
Compound,EC50 [1],EC50 (SARS-CoV-2 variant Delta),rescue of cytopathic effect (Omicron variant),EC50 (SARS-CoV-2 variant Alpha),EC50 (SARS-CoV-2 variant Beta),viral inhibition [2]
Cc1cccc(/C=N/Nc2cc(N3CCOCC3)nc(OCCc3ccccn3)n2)c1 [Apilimod],< 6.9 nM,< 6.9 nM,significantly rescued the cytopathic effects,< 6.9 nM,< 6.9 nM,
COc1ccc(C(=O)Nc2cccc(C(F)(F)F)c2)cc1Nc1nc(-c2cccnc2)c2[nH]ccc2n1 [XMU-MP-7],< 6.9 nM,< 6.9 nM,significantly rescued the cytopathic effects,< 6.9 nM,12.4 nM,complete viral inhibition
CCC(CC)COC(=O)[C@H](C)N[P@](=O)(OC[C@H]1O[C@@](C#N)(c2ccc3c(N)ncnn23)[C@H](O)[C@@H]1O)Oc1ccccc1 [Remdesivir],615 nM,938 nM,,609 nM,495 nM,
